Experimental findings from patent US8664223B2, “Pyridine and pyrimidine derivatives as inhibitors of histone deacetylase” (Janssen Pharmaceutica N.V, priority 2006, dated 2014) are described below.

Converted amounts (≈) assume the structure as drawn. Counter-ions that a name gives are not always drawn. Like-named read-outs stand apart in the source and are kept apart here.

The subject of series [1] is A2780 ovarian carcinoma cells. Description: Antiproliferative activity on A2780 cells (MTT). In kind it is cell-based. Conditions: Homo sapiens, 96 h, four days of incubation, read-out: Cellular activity pIC50 C.2 (converted). Here is the method:
Cellular activity of the compounds of formula (I) was determined on A2780 tumour cells using a colorimetric assay for cell toxicity or survival (Mosmann Tim, Journal of Immunological Methods 65: 55-63, 1983) (see example C.2).
All compounds tested were dissolved in DMSO and further dilutions were made in culture medium. Final DMSO concentrations never exceeded 0.1% (v/v) in cell proliferation assays. Controls contained A2780 cells and DMSO without compound and blanks contained DMSO but no cells. MTT was dissolved at 5 mg/ml in PBS. A glycine buffer comprised of 0.1 M glycine and 0.1 M NaCl buffered to pH 10.5 with NaOH (1N) was prepared (all reagents were from Merck).
The human A2780 ovarian carcinoma cells (a kind gift from Dr. T. C. Hamilton [Fox Chase Cancer Centre, Pennsylvania, USA]) were cultured in RPMI 1640 medium supplemented with 2 mM L-glutamine, 50 μg/ml gentamicin and 10% fetal calf serum. Cells were routinely kept as monolayer cultures at 37° C. in a humidified 5% CO2 atmosphere. Cells were passaged once a week using a trypsin/EDTA solution at a split ratio of 1:40. All media and supplements were obtained from Life Technologies. Cells were free of mycoplasma contamination as determined using the Gen-Probe Mycoplasma Tissue Culture kit (supplier: BioMérieux).
Cells were seeded in NUNC™ 96-well culture plates (Supplier: Life Technologies) and allowed to adhere to the plastic overnight. Densities used for plating were 1500 cells per well in a total volume of 200 μl medium. After cell adhesion to the plates, medium was changed and drugs and/or solvents were added to a final volume of 200 μl. Following four days of incubation, medium was replaced by 200 μl fresh medium and cell density and viability was assessed using an MTT-based assay. To each well, 25 μl MTT solution was added and the cells were further incubated for 2 hours at 37° C. The medium was then carefully aspirated and the blue MTT-formazan product was solubilized by addition of 25 μl glycine buffer followed by 100 μl of DMSO. […] Within an experiment, the results for each experimental condition are the mean of 3 replicate wells. For initial screening purposes, compounds were tested at a single fixed concentration of 10^−6 M. For active compounds, the experiments were repeated to establish full concentration-response curves. For each experiment, controls (containing no drug) and a blank incubation (containing no cells or drugs) were run in parallel. The blank value was subtracted from all control and sample values. For each sample, the mean value for cell growth (in absorbance units) was expressed as a percentage of the mean value for cell growth of the control. […] Herein the effects of test compounds are expressed as pIC50 (the negative log value of the IC50-value) (see Table F-2).

Series [2] has as its target histone deacetylase (HeLa nuclear extracts). Description: In vitro assay for inhibition of histone deacetylase with fluorescent-labelled substrate (Fluor de Lys). It counts as biochemical. The settings on record: HeLa nuclear extracts 60 μg/ml, 75 μM substrate. From the text: The in vitro assay for inhibition of histone deacetylase (see example C.1) measures the inhibition of HDAC enzymatic activity obtained with the compounds of formula (I).
The HDAC Fluorescent Activity Assay/Drug Discovery Kit of Biomol (cat. No: AK-500-0001) was used. The HDAC Fluorescent Activity Assay is based on the Fluor de Lys (Fluorogenic Histone deAcetylase Lysyl) substrate and developer combination. The Fluor de Lys substrate, comprises an acetylated lysine side chain. Deacetylation of the substrate sensitizes the substrate so that, in the second step, treatment with the Fluor de Lys developer produces a fluorophore.
HeLa nuclear extracts (supplier: Biomol) were incubated at 60 μg/ml with 75 μM of substrate. The Fluor de Lys substrate was added in a buffer containing 25 mM Tris, 137 mM NaCl, 2.7 mM KCl and 1 mM MgCl2.6H2O at pH 7.4. After 30 min, 1 volume of the developer was added. The fluorophore was excited with 355 nm light and the emitted light (450 nm) was be detected on a fluorometric plate reader.
For each experiment, controls (containing HeLa nuclear extract and buffer), a blank incubation (containing buffer but no HeLa nuclear extract) and samples (containing compound dissolved in DMSO and further diluted in buffer and HeLa nuclear extract) were run in parallel. In first instance, compounds were tested at a concentration of 10^−5M. […] All sample were tested 4 times. In each test the blank value was subtracted from both the control and the sample values. The control sample represented 100% of substrate deacetylation. For each sample the fluorescence was expressed as a percentage of the mean value of the controls. […] Herein the effects of test compounds are expressed as pIC50 (the negative log value of the IC50-value) (see Table F-2).

Test in series [3]: not given
The source holds these as a separate data set.

The nature of series [4]: Solubility/stability at pH 2.3 (chemiluminescent nitrogen detector). Conditions: pH 2.3, aqueous buffer; read-out: Solubility C.3.b. pH = 2.3. In kind it is physicochemical. The protocol: The solubility of a compound measures the ability of a compound to stay in solution. In the first method, the ability of a compound to stay in aqueous solution upon dilution (see example C.3.a) is measured. DMSO-stock solutions are diluted with a single aqueous buffer solvent in different consecutive steps. In this method (C.3.a), mixtures are then scanned in the BD Gentest Solubility Scanner for the occurrence of precipitation. In the second method the solubility of a compound at different pH's can be measured with the use of a chemiluminescent nitrogen detector (see example C.3.b).
C.3.b. Solubility/Stability at pH 2.3
The solubility of a compound, at pH 2.3, can also be measured with the use of a chemiluminescent nitrogen detector (see Table F-2).

One may read the melting point as the temperature of the solid-liquid transition. Compound `CC(=O)NC(/C=C/c1ccccc1)CN1CCN(c2ncc(C(=O)NO)cn2)CC1` (stereo not drawn) (as salt: trifluoroacetic acid salt) (hydrate or solvate) [Compound 1] displayed a melting point of 166 °C.
Take `CS(=O)(=O)NC(/C=C/c1ccc(F)cc1)CN1CCN(c2ccc(C(=O)NO)cn2)CC1` (stereo not drawn) [Compound 6]: the IC50 in series [1] was 5010 nM. In series [2], the “Enzymatic activity pIC50 C.1” value is listed as 7.0.
In the case of `COc1cc(N)c(Cl)cc1C(=O)NC1CCN(CCCOc2ccc(F)cc2)CC1OC` (stereo not drawn) [Cisapride], the “% metabolism” value in series [3] (human, 15 min, 5 μM) is 45%.
Take `O=C(NO)c1cnc(N2CCN(CC(/C=C/c3ccccc3)N3C(=O)CCC3=O)CC2)nc1` (stereo not drawn) (as salt: trifluoroacetic acid salt) (hydrate or solvate) [Compound 3]: the melting point is 148 °C.
For orientation: solubility means the dissolved amount per volume that the medium holds. For the compound `NC(/C=C/c1ccccc1)CN1CCN(c2ncc(C(=O)NO)cn2)CC1` (stereo not drawn) [Compound 2], the IC50 in series [1] is 79.4 nM. The “Enzymatic activity pIC50 C.1” value in series [2] turned out to be 8.2. Further, in series [4], the solubility was 3100 µg/mL (≈ 8.41 mM).
Turning to `O=C(NO)c1cnc(N2CCN(CC(/C=C/c3ccccc3)N3C(=O)CCC3=O)CC2)nc1` (stereo not drawn) [Compound 3], the IC50 in series [1] is 7940 nM. Besides, the “Enzymatic activity pIC50 C.1” value in series [2] turned out to be 7.5.
In turn, `NC(/C=C/c1ccccc1)CN1CCN(c2ncc(C(=O)NO)cn2)CC1` (stereo not drawn) (as salt: trifluoroacetic acid salt) [Compound 2] yielded a melting point of 124 °C.
Same read-out and setting: next, `O=C(NO)c1cnc(N2CCN(CC(/C=C/c3ccccc3)Oc3ccc(F)cc3)CC2)nc1` (stereo not drawn) (as salt: trifluoroacetic acid salt) (hydrate or solvate) [Compound 4]: 115 °C.
On to `CCCO` [propanol], for which the “% metabolism” value in series [3] (after 15 min incubation with active microsomes, compound 5 μM) is 25%.
Consider `CC(=O)NC(/C=C/c1ccccc1)CN1CCN(c2ncc(C(=O)NO)cn2)CC1` (stereo not drawn) [Compound 1], for which, in series [1], the IC50 was 398 nM. Further, in series [2], the “Enzymatic activity pIC50 C.1” value was 8.2. Besides, in series [4], the solubility is 2400 µg/mL (≈ 5.85 mM).
Take `O=C(NO)c1cnc(N2CCN(CC(/C=C/c3ccccc3)Oc3ccc(F)cc3)CC2)nc1` (stereo not drawn) [Compound 4]: in series [1], the IC50 was 1580 nM. Also, in series [2], the “Enzymatic activity pIC50 C.1” value is recorded as 7.3.
